Patent publication US20240043442A1, “SELECTIVE ESTROGEN RECEPTOR DEGRADERS AND USES THEREOF” (InventisBio LLC, priority 2016, published 2024)
Like-named read-outs stand apart in the source and are kept apart here.

Columns and labels:
[1] = tested on: breast cancer cell line MCF-7; test: MCF-7 cell growth study (celltiter-glo luminescent viability assay); type: cell-based, human; details: MCF-7 cells, 6 days incubation, read-out: IC50 (nM), cell growth inhibition;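 also: viability read by luminescence after compound exposure, relative to DMSO vehicle-treated wells on the same plate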
Description: Compound activity was analyzed using celltiter-glo luminescent viability assay (Promega #G7572) in breast cancer cell line MCF-7. Cells grown in log phase are trypsinized and seeded into a 96-well cell culture plate at a density of 2×10^3 per well and incubated overnight at 37° C. with 5% CO2 in humidified culture chamber. The next day, compounds were prepared in 100% DMSO and were serially diluted and added into cells in the following final concentrations: 316, 100, 31.6, 10, 3.16, 1, 0.32, 0.1, 0.03, 0.01, 0.003 and 0.001 nM. As a control, same volume and concentration of DMSO vehicle control solution was added to the control wells in each plate. The cells were incubated with compounds at 37° C. culture chamber for 6 days. Promega's celltiter-glo kit was used to analyze the cell viability, according to manufacture's instruction. Briefly, fifty microliter of celltiter-glo reagent was added to each well, plate (covered with aluminum foil) was gently vibrated for 10 min to induce cell lysis at room temperature. Luminescence was measured using a SPECTRAmax i3 reader.

ER = ER (Homo sapiens (Human), UniProt P03372); test: MCF-7 ER degradation assay (high content imaging); type: cell-based; details: MCF-7 cells, 1 nM compound, DMSO control as baseline; for MCF7 ER Degradation at 4 hr (%): 4 hours treatment; for MCF7 ER Degradation at 24 hr (%): 24 hours treatment
Description: The level of ER degradation by SERD described in this patent was analyzed by cell based high content imaging method. […] Then, 1 μL of compound solution (in DMSO) was added to the cells to make a final concentration of 1 nM per each well of treated cells. DMSO at the same final concentration (%) per each well was used to serve as negative control on each plate. After 4 hours or 24 hours of treatment at 37° C. with 5% CO2, the cells were fixed and permeabilized. Media from each well was aspirated and cells were gently washed with 1×PBS for 5 minutes and the wash procedure was repeated 3 times. Cells was then fixed with 4% formaldehyde freshly made in 1×PBS at room temperature for 20 minutes, followed by gentle washing with 1×PBS, 3 times for 5 minute each. The assay plate was incubated with 200 μl of 1×PBS containing 0.2% Triton-X100 for 5 minutes at room temperature, cells were then washed again with 1×PBS 3 times for 5 minutes each. After this, cells were incubated with the blocking buffer (1×PBS with 5% BSA) at room temperature for 1 hour. For immunostaining, blocking buffer was removed and primary anti-ER antibody (ER1D5, Santa Cruz) diluted in blocking buffer (1:400) was added to each well and cells were incubated overnight at 4° C. The next day, cells were washed with 1×PBS for 3 times with 5 minute each. […] Cells were washed with 1×PBS for 3 times with 5 minute each time. Cells were incubated with DAPI (Beyotime; 1 μg/ml) for 10 minutes and washed with 1×PBS for 3 times with 5 minute each time. […] SERD induced ER degradation in the MCF-7 cells were measured using DMSO negative control as the baseline.

pooled human hepatocytes = test: Human hepatocyte clearance study; type: in vitro ADME; details: for Human In vitro Clint (μL/min/10^6 cells) / Human In vitro T1/2 / Human Scale-up Clint: human hepatocytes; for Human Hepatocyte Remaining Percentage @ 120 min (%): human hepatocytes 0.5x10^6 viable cells/mL; for Human Scale-up Clint: scaling factor 2544.3
Description: (§1) The in vitro hepatocyte clearance of compound described here was studied using pooled human hepatocytes purchased from BioreclamationlVT (Westbury, NY, Cat #X008001, Lot #TQJ). Assay was conducted according to manufacture's instruction. Briefly, mM tock solutions of test compound and positive control (Verapamil) were prepared in 100% DMSO. Thawing media (50 mL) used in the study consists of: 31 mL Williams E medium (GIBCO Cat #12551-032); 15 mL isotonic percoll (GE Healthcare Cat #17-0891-09); 500 uL 100×GlutaMax (GIBCO Cat #35050); 750 uL HEPES (GIBCO Cat #15630-080); 2.5 mL FBS (Corning Cat #35-076-CVR); 50 uL human insulin (GIBCO Cat #12585-014) and 5 uL dexamethasone (NICPBP). Incubation media is made of Williams E medium supplemented with 1×GlutaMax. Thawing medium and supplement incubation medium (serum-free) were placed in a 37° C. water bath for at least 15 minutes prior to use. Compound stock solutions were diluted to 100 μM by combining 198 μt of 50% acetonitrile/50% water and 2 μL of 10 mM stock solution. Verapamil was use as positive control in the assay. Vials of cryopreserved hepatocytes were removed from storage and thawed in a 37° C. water bath with gentle shaking. Contents of the vial were poured into the 50 mL thawing medium conical tube. Vials were centrifuged at 100 g for 10 minutes at room temperature. Thawing medium was aspirated and hepatocytes were re-suspended with serum-free incubation medium to yield ˜1.5×10^6 cells/mL. Hepatocyte viability and density were counted using a Trypan Blue exclusion, and then cells were diluted with serum-free incubation medium to a working cell density of 0.5×10^6 viable cells/mL. Then, a portion of the hepatocytes at 0.5×10^6 viable cells/mL was boiled for 5 min prior to adding to the plate as negative control to eliminate the enzymatic activity so that little or no substrate turnover should be observed. The boiled hepatocytes were used to prepare negative samples. Aliquots of 198 μL hepatocytes were dispensed into each well of a 96-well non-coated plate. The plate was placed in the incubator on an orbital shaker at 500 rpm for approximately 10 minutes. Aliquots of 2 μL of the 100 μM test compound or positive control were added into respective wells of the non-coated 96-well plate to start the reaction. This assay was performed in duplicate. The plate was incubated in the incubator on an orbital shaker at 500 rpm for the designed time points. Twenty-five microliter of contents were transferred and mixed with 6 volumes (150 μL) of cold acetonitrile with IS (200 nM imipramine, 200 nM labetalol and 200 nM diclofenac) to terminate the reaction at time points of 0, 15, 30, 60, 90 and 120 minutes. Samples were centrifuged at 3,220 g for 25 minutes and aliquots of 150 μL of the supernatants was used for LC-MS/MS analysis. For data analysis, all calculations were carried out using Microsoft Excel. Peak areas were determined from extracted ion chromatograms. The in vitro half-life (t1/2) of parent compound was determined by regression analysis of the percent parent disappearance vs. time curve. The in vitro half-life (in vitro t1/2) was determined from the slope value: in vitro t1/2=0.693/k. […] Scaling factors for in vivo intrinsic clearance prediction using human hepatocytes are listed as: liver weight (g liver/kg body weight): 25.7; hepatocyte concentration (10^6 cells/g liver): 99; scaling factor: 2544.3.

[2] = Human hepatocyte clearance study; type: in vitro ADME; details: pooled cryopreserved human hepatocytes (suspension); for hepatocyte CLint at 1 µM / half-life at 1 µM: human; for hepatocyte CLint at 1 µM: read-out: Human In vitro Clint (μL/min/10^6 cells); for half-life at 1 µM: read-out: Human In vitro T1/2; for CLint scaled at 1 µM: human hepatocytes, scaling factor 2544.3, read-out: Human Scale-up Clint
Description: as §1

Chain of ER (P03372 whole entry): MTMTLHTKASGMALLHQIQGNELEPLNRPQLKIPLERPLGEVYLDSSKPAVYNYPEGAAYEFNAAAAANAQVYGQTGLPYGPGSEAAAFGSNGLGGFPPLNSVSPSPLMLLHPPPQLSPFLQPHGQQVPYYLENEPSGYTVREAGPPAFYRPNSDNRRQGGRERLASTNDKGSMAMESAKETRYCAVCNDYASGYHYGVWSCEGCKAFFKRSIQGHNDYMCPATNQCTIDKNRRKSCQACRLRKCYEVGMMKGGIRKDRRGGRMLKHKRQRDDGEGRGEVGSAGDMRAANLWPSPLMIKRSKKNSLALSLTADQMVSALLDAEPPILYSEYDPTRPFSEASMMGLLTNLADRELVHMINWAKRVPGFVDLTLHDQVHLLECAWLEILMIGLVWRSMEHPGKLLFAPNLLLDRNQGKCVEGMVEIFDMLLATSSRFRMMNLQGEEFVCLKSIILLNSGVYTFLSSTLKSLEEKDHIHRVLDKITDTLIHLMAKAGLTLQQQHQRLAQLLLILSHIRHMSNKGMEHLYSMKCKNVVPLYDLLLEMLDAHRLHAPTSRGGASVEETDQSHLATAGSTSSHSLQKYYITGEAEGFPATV

Row | IC50 ([1]; Homo sapiens, MCF7, 144 h) | IC50 [1] | SMILES | further results
1 | 1 nM | – | C[C@@H]1Cc2c([nH]c3ccccc23)[C@@H](c2c(F)cc(/C=C/C(=O)O)cc2F)N1CC1(C)CC1 [Compound 30] | –
2 | – | – | CC1Cc2c([nH]c3cc(F)ccc23)C(c2c(F)cc(/C=C/C(=O)O)cc2F)N1CC(C)(C)F (stereo not shown) [Compound 34A] | MCF7 ER Degradation at 4 hr (%) (ER): 21%; MCF7 ER Degradation at 24 hr (%) (ER): 20%
3 | 0.4 nM | – | CC(C)(F)CN1C(c2c(F)cc(/C=C/C(=O)O)cc2F)c2[nH]c3ccccc3c2CC1C(F)(F)F (stereo not shown) [Compound 31A] | –
4 | 2.9 nM | – | COc1ccc2[nH]c3c(c2c1)CC(C)N(CC(C)(C)F)C3c1c(F)cc(/C=C/C(=O)O)cc1F (stereo not shown) [Compound 37A] | –
5 | – | 0.6 nM | CC(C)(F)CN1C(c2c(F)cc(OCCN3CC(CF)C3)cc2F)c2[nH]c3ccccc3c2CC1C(F)(F)F (stereo not shown) [Compound 16A] | –
6 | – | 1.9 nM | CC1Cc2c([nH]c3ccc(Cl)cc23)C(c2c(F)cc(/C=C/C(=O)O)cc2F)N1CC(C)(C)F (single isomer, unassigned) [Compound 42A] | –
7 | – | 0.3 nM | C[C@@H]1Cc2c([nH]c3ccccc23)[C@@H](c2c(F)cc(/C=C/C(=O)O)cc2Cl)N1CC(C)(C)F [Compound 20] | MCF7 ER Degradation at 4 hr (%) (ER): 25%; MCF7 ER Degradation at 24 hr (%) (ER): 21%; Human In vitro Clint (μL/min/10^6 cells) (pooled human hepatocytes): 5.6 μL/min/10^6 cells; Human In vitro T1/2 (pooled human hepatocytes): 4.1 h; Human Hepatocyte Remaining Percentage @ 120 min (%) (pooled human hepatocytes): 70%; Human Scale-up Clint (pooled human hepatocytes): 14 mL/min/kg
8 | 0.7 nM | – | CC1Cc2c([nH]c3ccc(F)cc23)C(c2c(Cl)cc(/C=C/C(=O)O)cc2Cl)N1CC(C)(C)F (stereo not shown) [Compound 27B] | –
9 | 7.9 nM | – | CC1Cc2c(oc3ccccc23)C(c2c(F)cc(/C=C/C(=O)O)cc2F)N1CC(C)(F)F (stereo not shown) [Compound 44A] | –
10 | 3.1 nM | – | C[C@@H]1Cc2c([nH]c3ccccc23)[C@@H](c2c(Cl)cc(OCCN3CC(CF)C3)cc2Cl)N1CC(C)(C)F [Compound 9] | –
11 | 0.9 nM | – | C[C@@H]1Cc2c([nH]c3ccccc23)[C@@H](c2c(F)cc(/C=C/C(=O)O)cc2F)N1CC(C)(F)F [Compound 29] | hepatocyte CLint at 1 µM [2]: 2.4 µL/min/1e6 cells; half-life at 1 µM [2]: 9.52 h; CLint scaled at 1 µM [2]: 6.2 mL/min/kg; Human Hepatocyte Remaining Percentage @ 120 min (%) (pooled human hepatocytes): 83%
12 | 2.5 nM | – | CC1Cc2c([nH]c3cc(F)ccc23)C(c2c(F)cc(/C=C/C(=O)O)cc2F)N1CC(C)(F)F (stereo not shown) [Compound 35A] | –
13 | – | > 100 nM | CC1Cc2c([nH]c3ccc(Cl)cc23)C(c2c(F)cc(/C=C/C(=O)O)cc2F)N1CC(C)(C)F (single isomer, unassigned) [Compound 42B] | –
14 | 0.9 nM | – | C[C@@H]1Cc2c([nH]c3ccccc23)[C@@H](c2c(F)cc(OCCN3CCCCCC3)cc2F)N1CC(C)(F)F [Compound 4] | –
15 | 1.8 nM | – | COc1ccc2c3c([nH]c2c1)C(c1c(F)cc(OCCN2CC(CF)C2)cc1F)N(CC(C)(C)F)C(C)C3 (stereo not shown) [Compound 15A] | –
16 | 16 nM | – | CC1Cc2c([nH]c3cc(O)ccc23)C(c2c(F)cc(/C=C/C(=O)O)cc2F)N1CC(C)(C)F (stereo not shown) [Compound 36] | –
17 | 3.1 nM | – | CC1Cc2c([nH]c3ncccc23)C(c2c(F)cc(OCCN3CC(CF)C3)cc2F)N1CC(C)(F)F (stereo not shown) [Compound 19A] | –
18 | – | – | CC1Cc2c([nH]c3ccc(F)cc23)C(c2c(F)cc(/C=C/C(=O)O)cc2F)N1CC(C)(C)F (stereo not shown) [Compound 46A] | MCF7 ER Degradation at 4 hr (%) (ER): 25%; MCF7 ER Degradation at 24 hr (%) (ER): 20%
19 | 1 nM | – | C[C@@H]1Cc2c([nH]c3ccccc23)[C@@H](c2c(F)cc(OCCN3CCCCCC3)cc2F)N1CC(C)(C)F [Compound 8] | –
20 | – | 2.6 nM | COc1ccc2c3c([nH]c2c1)C(c1c(F)cc(/C=C/C(=O)O)cc1F)N(CC(C)(C)F)C(C)C3 (stereo not shown) [Compound 22A] | –

Row | IC50 ([1]; Homo sapiens, MCF7, 144 h) | IC50 [1] | SMILES | further results
21 | – | 0.8 nM | CC1Cc2c(oc3ccccc23)C(c2c(F)cc(OCCN3CC(CF)C3)cc2F)N1CC(C)(C)F (stereo not shown) [Compound 17A] | –
22 | – | 0.5 nM | CC1Cc2c([nH]c3ccc(F)cc23)C(c2c(F)cc(OCCN3CC(CF)C3)cc2F)N1CC(C)(C)F (stereo not shown) [Compound 13A] | –
23 | 1.2 nM | – | CC1Cc2c([nH]c3ccc(F)cc23)C(c2c(F)cc(/C=C/C(=O)O)cc2F)N1CC(C)(F)F (stereo not shown) [Compound 33A] | –
24 | 3.2 nM | – | C[C@@H]1Cc2c([nH]c3ccccc23)[C@@H](c2c(Cl)cc(OCCN3CC(CF)C3)cc2Cl)N1CC(C)(F)F [Compound 10] | –
25 | 2.6 nM | – | CC1Cc2c([nH]c3ccc(F)cc23)C(c2c(Cl)cc(OCCN3CC(CF)C3)cc2Cl)N1CC(C)(C)F (stereo not shown) [Compound 14B] | –
26 | 0.6 nM | – | C[C@@H]1Cc2c([nH]c3ccccc23)[C@@H](c2c(F)cc(OCCN3CCCCC3)cc2F)N1CC(C)(F)F [Compound 3] | –
27 | 4.7 nM | – | CC1Cc2c(sc3ccccc23)C(c2c(F)cc(/C=C/C(=O)O)cc2F)N1CC(C)(C)F (stereo not shown) [Compound 48A] | –
28 | – | 4.2 nM | CC1Cc2c([nH]c3ccc(O)cc23)C(c2c(F)cc(/C=C/C(=O)O)cc2F)N1CC(C)(C)F (stereo not shown) [Compound 23] | –
29 | – | 0.9 nM | CCC1Cc2c([nH]c3ccccc23)C(c2c(F)cc(/C=C/C(=O)O)cc2F)N1CC(C)(C)F (single isomer, unassigned) [Compound 40A] | –
30 | 0.9 nM | – | C[C@@H]1Cc2c([nH]c3ccccc23)[C@@H](c2c(F)cc(OCCN3CCCC3)cc2F)N1CC(C)(F)F [Compound 2] | –
31 | 8.9 nM | – | CC1Cc2c(oc3ccccc23)C(c2c(Cl)cc(/C=C/C(=O)O)cc2Cl)N1CC(C)(C)F (stereo not shown) [Compound 45] | –
32 | – | > 100 nM | CCC1Cc2c([nH]c3ccccc23)C(c2c(F)cc(/C=C/C(=O)O)cc2F)N1CC(C)(C)F (single isomer, unassigned) [Compound 40B] | –
33 | 0.8 nM | – | CC1Cc2c([nH]c3cc(Cl)ccc23)C(c2c(F)cc(/C=C/C(=O)O)cc2F)N1CC(C)(C)F (stereo not shown) [Compound 43B] | –
34 | 0.5 nM | – | C[C@@H]1Cc2c([nH]c3ccccc23)[C@@H](c2c(F)cc(/C=C/C(=O)O)cc2Cl)N1CC(C)(F)F [Compound 49] | –
35 | 0.4 nM | – | C[C@@H]1Cc2c([nH]c3ccccc23)[C@@H](c2c(F)cc(OCCN3CC(CF)C3)cc2Cl)N1CC(C)(C)F [Compound 11] | hepatocyte CLint at 1 µM [2]: 2 µL/min/1e6 cells; half-life at 1 µM [2]: 11.1 h; CLint scaled at 1 µM [2]: 5.3 mL/min/kg; Human Hepatocyte Remaining Percentage @ 120 min (%) (pooled human hepatocytes): 83%
36 | 8.9 nM | – | CC1Cc2c(oc3ccccc23)C(c2c(Cl)cc(OCCN3CC(CF)C3)cc2Cl)N1CC(C)(C)F (stereo not shown) [Compound 18] | –
37 | 1.9 nM | – | CC1Cc2c([nH]c3ncccc23)C(c2c(F)cc(/C=C/C(=O)O)cc2F)N1CC(C)(C)F (stereo not shown) [Compound 32A] | –
38 | – | 1.3 nM | CC1Cc2c([nH]c3ccc(F)cc23)C(c2c(Cl)cc(/C=C/C(=O)O)cc2Cl)N1CC(C)(F)F (stereo not shown) [Compound 28] | –
39 | 2.6 nM | – | CC(C)CN1C(C)Cc2c([nH]c3ccc(F)cc23)C1c1c(F)cc(/C=C/C(=O)O)cc1F (stereo not shown) [Compound 39A] | –
40 | – | 0.3 nM | C[C@@H]1Cc2c([nH]c3ccccc23)[C@@H](c2c(F)cc(OCCN3CC(CF)C3)cc2F)N1CC(C)(F)F [Compound 1] | Human In vitro Clint (μL/min/10^6 cells) (pooled human hepatocytes): 1.6 μL/min/10^6 cells; Human In vitro T1/2 (pooled human hepatocytes): 14.2 h; Human Hepatocyte Remaining Percentage @ 120 min (%) (pooled human hepatocytes): 88%; Human Scale-up Clint (pooled human hepatocytes): 4.1 mL/min/kg

Row | SMILES | IC50 ([1]; Homo sapiens, MCF7, 144 h) | IC50 [1] | further results
41 | C[C@@H]1Cc2c([nH]c3ccccc23)[C@@H](c2c(F)cc(/C=C/C(=O)O)cc2F)N1CC1(F)CC1 [Compound 24] | – | 1.9 nM | –
